Drawing on PubChem BioAssay (NCI), this text covers TGI and GI50 for 17 molecules.

Experiment in all cases: DTP human tumour cell line panel, 48 h
Test [1] concerns SK-MEL-5 melanoma.
Test [2] relates to OVCAR-8 ovarian.
Test [3] relates to ACHN renal.
Test [4] concerns HL-60(TB) leukemia.
For test [5], the system named is 786-0 renal.
For test [6], the system named is UACC-62 melanoma.
Test [7] relates to KM12 colon.
Test [8] concerns EKVX NSCLC.
In test [9] the test system is SF-295 CNS.
The test system of test [10] is HOP-92 NSCLC.

Molecules are shown by their SMILES.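 96-well plates; 48 h exposure; 5 concentrations. Endpoints by linear interpolation between flanking doses. Not reached: highest tested concentration assigned. GI50 is the concentration that inhibits growth by half. TGI is the concentration that stops growth completely.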

By TGI is commonly meant the concentration giving total growth inhibition. Low values mean more potent growth arrest, high ones less potent growth arrest. As to `CN(C)C(=S)/N=c1\ss/c(=N\S(=O)(=O)c2ccccc2)n1N(C)C`, the TGI in test [1], in [2], in test [3], in test [4], in test [5] and in test [6] was greater than 100 µM in each case. Further, the concentration for total growth inhibition (TGI) in [7] and in test [8] was greater than 100 µM throughout.
As for `COC1OC2COC(c3ccccc3)OC2C(O)C1Br` (configuration not stated), the concentration for total growth inhibition (TGI) in [9], in [1], in test [2], in test [3], in test [4] and in test [5] was greater than 100 µM throughout. Further, the TGI in test [6], in test [7] and in [10] was greater than 100 µM throughout.
Usually GI50 stands for the concentration giving 50% growth inhibition. Turning to `ClCc1ccc(Cn2cnc3c(Cl)nc(Cl)nc32)cc1`, the GI50 in test [9] is 7.2 µM; in test [1], 6.49 µM; in [2] it was 20 µM; in test [3], 2.35 µM; in test [5] it was 14 µM; in test [6], 2.06 µM. Further, the GI50 was 1.8 µM in test [7] and 17.3 µM in test [8]. Further, the TGI in [9] was 19.5 µM; in test [1], 19.2 µM; in test [2], 38.3 µM; in test [3], 5.28 µM; in test [5], 29.5 µM; in test [6], 4.4 µM. The results for the TGI in test [7] and in test [8] were 3.23 µM and 31.8 µM, respectively.
Turning to `Clc1nc(Cl)c2ncn(Cc3ccc(Cn4cnc5c(Cl)nc(Cl)nc54)cc3)c2n1`, the GI50 in test [9] is 7.68 µM; in [1] it was 2.13 µM; in [2] it was 10.4 µM; in test [3], 5.16 µM; in test [4], 0.0475 µM; in [5], 1.6 µM. The GI50 in test [6] and in test [7] was 12.5 µM in each case. The TGI in test [9] was 48.2 µM; in [1], 20.8 µM; in [2], 25 µM; in test [3], 20.4 µM; in [4], 4.4 µM; in [5] it was 11.2 µM. Moreover, the TGI in [6] worked out at 27.8 µM; in test [7], 31.2 µM; in [8] it was 25 µM.
For the molecule `O=S(=O)(NCCNc1nccc(-c2c(-c3ccc(F)cc3)nc3sccn23)n1)c1ccccc1`, the GI50 in test [9] was 7.64 µM; in [1], 2.45 µM; in [2], 4.17 µM; in [3], 1.69 µM; in [4], 16.9 µM; in test [5], 4.77 µM. Moreover, the GI50 is 5.13 µM in [6], 4.12 µM in test [7] and 1.34 µM in test [10]. Moreover, the TGI is 34.2 µM in [9]; 13.7 µM in [1]; greater than 100 µM in test [2]; greater than 100 µM in [3]; 61.7 µM in [4]; greater than 100 µM in test [5]. Besides, the values for the TGI in test [6], in [7] and in test [10] were 23.2 µM, 68.3 µM and 8.14 µM, respectively.
In the case of `Oc1ccc(Cl)cc1CNc1nc2ccccc2[nH]1`, the GI50 is 12.9 µM in test [9]; 13 µM in [1]; 12.9 µM in test [2]; 13.8 µM in [3]; 19.8 µM in [4]; 14.3 µM in [5]. Further, the results for the GI50 in test [6], in test [7] and in test [10] were 13.8 µM, 13.3 µM and 2.37 µM, respectively. Besides, the concentration for total growth inhibition (TGI) in test [9] is 27.5 µM; in test [1] it was 25.6 µM; in test [2], 30.8 µM; in test [3], 35.8 µM; in test [4] it was greater than 100 µM; in test [5], 31.4 µM. Further, the TGI in test [6] came to 27.6 µM; in test [7] it was 27 µM; in test [10] it was 10.4 µM.
As for `O=C(Nc1ccc(Cl)c(Cl)c1)OCCN1c2ccccc2Sc2ccccc21`, the total growth inhibition concentration (TGI) in test [9], in test [1], in [2], in test [3], in test [4] and in test [5] was greater than 10 µM each time. Further, the TGI in [6], in [7] and in [10] was greater than 10 µM throughout.
Regarding `COc1ccc(-c2nn(-c3cccc(NC(=O)c4ccc(N5CCOCC5)c(C(F)(F)F)c4)c3)cc2-c2ccncc2)cc1Cl`, the GI50 in test [9] was 2.31 µM; in test [1] it was 6.4 µM; in [2] it was 4.47 µM; in [3], 10.2 µM; in [4] it was 4.42 µM; in test [5], 1.51 µM. The GI50 in [6] was 8.69 µM; in test [7] it was 2.11 µM. The TGI in test [9] was greater than 50 µM; in test [1], greater than 50 µM; in test [2] it was greater than 50 µM; in [3] it was greater than 50 µM; in test [4] it was greater than 50 µM; in test [5], 27.6 µM. The TGI in test [6] and in [7] was greater than 50 µM in each case.
Take `COc1ccc(Nc2cc(C)nc(N3CCN(c4ccnc5cc(Cl)ccc45)CC3)n2)cc1`: the GI50 is 1.28 µM in [9]; 1.67 µM in [1]; 3.25 µM in [2]; 3.12 µM in [4]; 2.61 µM in test [5]; 1.71 µM in test [6]. Also, the figures for the GI50 in [7] and in [10] were 1.64 µM and 1.04 µM, respectively. Besides, the total growth inhibition concentration (TGI) in test [9] is 7.68 µM; in test [1], 3.35 µM; in test [2], greater than 100 µM; in test [4], 12.8 µM; in test [5], greater than 100 µM; in test [6], 5.93 µM. Also, the values for the TGI in test [7] and in test [10] were 31.6 µM and 5.59 µM, respectively.
Consider `COC(=O)C1=CC2OC1(C)CCC2=O` (configuration not stated), for which the TGI in [9] is greater than 100 µM; in test [2], greater than 100 µM; in [3] it was greater than 100 µM; in [4] it was 80.4 µM; in test [5], greater than 100 µM; in [7], greater than 100 µM. The TGI in [8] is greater than 100 µM.
For the molecule `CCCCCCC(/C=N/O)C(C)(O)CCC` (configuration not stated), the total growth inhibition concentration (TGI) in test [9], in test [1], in test [2], in [3], in test [4] and in [5] was greater than 100 µM each time. Moreover, the concentration for total growth inhibition (TGI) in test [6], in [7] and in test [8] was greater than 100 µM each time.
For `COc1cc(Cl)cc(-c2nn(-c3cccc(NC(=O)Nc4ccc(Cl)c(C(F)(F)F)c4)c3)cc2-c2ccncc2)c1`, the GI50 in [9] was 0.465 µM; in test [1], 1.54 µM; in [2] it was 0.739 µM; in test [3], 0.762 µM; in [4], 1.68 µM; in test [5] it was 1.59 µM. Besides, the GI50 in test [6] was 1.27 µM; in test [7], 0.555 µM. For the same molecule, the TGI in test [9] stood at 2 µM; in [1], 2.93 µM; in [2] it was 5.93 µM; in test [3], 10.2 µM; in test [4], 5.53 µM; in [5] it was 4.27 µM. Moreover, the figures for the TGI in [6] and in test [7] were 3.54 µM and 4.44 µM, respectively.
Turning to `O=[N+]([O-])c1ccc(Cl)cc1C1SCc2nc3ccccc3n21` (configuration not stated), the concentration for total growth inhibition (TGI) in [9] is greater than 100 µM; in test [1], 84.6 µM; in test [2], greater than 100 µM; in test [3] it was 27.4 µM; in test [4], greater than 100 µM; in [5], greater than 100 µM. Also, the TGI in [6], in [7] and in test [8] was greater than 100 µM throughout.
Take `CCC(Oc1ccc(OC)c2ccccc(=O)c12)C(=O)O` (configuration not stated): the concentration for total growth inhibition (TGI) in [9], in [1], in test [2], in test [3], in [4] and in test [5] was greater than 100 µM throughout. Further, the TGI in [6], in [7] and in [8] was greater than 100 µM in each case.
Regarding `O=C1OC(OCC#CCOC2OC(=O)C(Cl)=C2Cl)C(Cl)=C1Cl` (configuration not stated), the TGI amounted to 60.4 µM in [9]; 43.4 µM in test [1]; 20.8 µM in test [2]; 30.5 µM in test [3]; 16.8 µM in test [5]; 38.3 µM in test [6]. Further, the total growth inhibition concentration (TGI) in test [7] is 39.3 µM; in [8], 40.1 µM.
As for `CN1CC(=O)N(C)c2nc[nH]c2C1=O`, the TGI in [9], in test [1], in test [2], in test [3], in test [4] and in test [5] was greater than 100 µM throughout. In addition, the concentration for total growth inhibition (TGI) in test [6], in [7] and in [8] was greater than 100 µM each time.
For the molecule `COc1ccc(Nc2c3ccccc3nc3[nH]c4ccccc4c23)cc1`, the GI50 in test [9] is 8.9 µM; in test [1], 5.52 µM; in [2], 30.2 µM; in [3] it was 7.36 µM; in test [4], 4.98 µM; in test [5] it was 11.4 µM. In addition, the results for the GI50 in test [6], in test [7] and in [8] were 16.2 µM, greater than 50 µM and 10.9 µM, respectively. Besides, the concentration for total growth inhibition (TGI) in test [9] was greater than 50 µM; in [1], greater than 50 µM; in [2], greater than 50 µM; in test [3] it was 25 µM; in test [4], greater than 50 µM; in test [5], 49.2 µM. In addition, the total growth inhibition concentration (TGI) in test [6], in test [7] and in test [8] was greater than 50 µM each time.
